The LD50 is the dose expected to kill half of the subjects tested. A high value points to lower toxicity. As usually defined, the ED50 is the midpoint of the dose-response relation.

The record followed here is patent US3966735A, “1-3-(4-Fluorobenzoyl)propyl-4-substituted phenoxy ethyl piperazine” (Kali-Chemie Aktiengesellschaft, priority 1973, dated 1976).

In data set [1] the test system is female mice of the NMRI strain. Briefly: Squirrel-cage test for determining effect of drugs on motility (Test 4). It is filed as in vivo, mouse (female mice of the NMRI strain). The note with it: peroral, 20 mice, revolutions over 5 hours, compared with peroral chlordiazepoxide. On the procedure:
4. Squirrel-cage test for determining effect of drugs on motility: The test substance is administered perorally to female mice of the NMRI strain that had previously not been exercised in a squirrel cage. Twenty mice are placed into the revolving cylinder of the squirrel cage and they are allowed to run freely therein. The number of revolutions through which the cylinder in the squirrel cage spins every 15 minutes is noted during the course of an extended period of 5 hours, when the test is discontinued. The average of the number of revolutions per minute is calculated and represented on a graph. These values are then compared with […] and the results are reported in milligrams per kilogram of body weight.

Data set [2] can be described thus: Acute toxicity, single oral administration (Test 1). Conditions: mouse, in vivo, fasting white mice, NMRI strain, Litchfield and Wilcoxon. On the procedure:
1. Acute toxicity: The acute toxicity is determined by a single oral administration to fasting white mice of the NMRI strain. The […] lethal dose (LD50) is computed in accordance with the method described by J.T. Litchfield and F. Wilcoxon in Journal of Pharmacology and Experimental Therapeutics, vol. 96, page 99 (1949).

Data set [3] concerns mouse. As to the kind of experiment: Test of prolongation of narcosis induced by hexobarbital (Test 2). Conditions: peroral, 30 minutes before 65 mg/kg hexobarbital i.v., dose required to double the sleeping time, read-out: Narcotic prolongation effect (Test 2). It is filed as in vivo. The procedure:
2. Test of prolongation of narcosis induced by hexobarbital: In accordance with this test, the test substance is administered perorally to a mouse. After an interval of 30 minutes, a dose of 65 milligrams of hexobarbital per kilogram of body weight is administered intravenously. The result is reported as the dose of the test compound that was required to double the period of sleeping time that was induced by the hexobarbital.

Data set [4] concerns female mice of the NMRI strain. As to the kind of experiment: Test of sedative effectiveness (Test 3). It is filed as in vivo, mouse (female mice of the NMRI strain). Conditions: Mus musculus, ip, 0.5 h; intraperitoneal, on awakening from 100 mg/kg hexobarbital i.p.; dose required to induce sleep for 30 minutes; read-out: Effective sedative dose ED50 (Test 3). The procedure:
3. Test of sedative effectiveness: In this test is measured the period of narcosis that is induced by the test substance following a period of narcosis induced by hexobarbital. A dose of 100 milligrams of hexobarbital per kilogram of body weight is administered intraperitoneally to female mice of the NMRI strain. As soon as the mouse revives or awakens from the narcosis induced by the dose of hexobarbital, a measured dose of the test substance is administered intraperitoneally. The period between the administration of the test substance and the second revival of the mouse is then noted. From the length of this second period is calculated the dose of the test substance that was required to induce sleep for a period of 30 minutes and this dose is referred to as the effective sedative dose (ED50).

For the compound `Cl.Cl.O=C(CCCN1CCN(CCSc2ccc(Cl)cc2)CC1)c1ccc(F)cc1` [Substance 2, 1-[3-(4-Fluorobenzoyl)propyl]-4-[2-(4-chlorophenylthio)-ethyl]piperazine dihydrochloride], the “Squirrel cage motility test versus 21.5 mg/kg chlordiazepoxide (Test 4)” value in data set [1] is recorded as more than 10 mg/kg. The same compound registered a 50% lethal dose (LD50) in data set [2] of more than 1470 mg/kg. The ED (2-fold sleeping time) in data set [3] was 20 mg/kg. Moreover, in data set [4], the median effective dose (ED50) came out at 30 mg/kg.
Take `CCC(=O)c1ccc(OCCN2CCN(CCCC(=O)c3ccc(F)cc3)CC2)c(Cl)c1.Cl.Cl` [Substance 3, 1-[3-(4-Fluorobenzoyl)propyl]-4-[2-(4-propionyl-2-chlorophenoxy)ethyl]piperazine dihydrochloride]: the “Squirrel cage motility test versus 21.5 mg/kg chlordiazepoxide (Test 4)” value in data set [1] worked out at 1.5 mg/kg. Moreover, the LD50 in data set [2] amounted to 860 mg/kg. For the same compound, the ED (2-fold sleeping time) in data set [3] came to 20 mg/kg. In addition, the 50% effective dose (ED50) in data set [4] stood at 14 mg/kg.
In data set [2], `Cc1ccc([N+](=O)[O-])cc1OCCN1CCN(CCCC(=O)c2ccc(F)cc2)CC1.Cl.Cl` [Substance 6, 1-[3-(4-Fluorobenzoyl)propyl]-4-[2-(5-nitro-2-methylphenoxy)ethyl]piperazine dihydrochloride] registered an LD50 of more than 1470 mg/kg. The ED (2-fold sleeping time) in data set [3] was 32 mg/kg. Further, the ED50 in data set [4] was 23 mg/kg.
For the compound `Cl.Cl.O=C(CCCN1CCN(CCSc2ccc([N+](=O)[O-])cc2)CC1)c1ccc(F)cc1` [Substance 8, 1-[3-(4-Fluorobenzoyl)propyl]-4-[2-(4-nitrophenylthio)-ethyl]piperazine dihydrochloride], the “Squirrel cage motility test versus 21.5 mg/kg chlordiazepoxide (Test 4)” value in data set [1] amounted to 6.8 mg/kg. Further, the LD50 in data set [2] was 499 mg/kg. In data set [3], the ED (2-fold sleeping time) was found to be 6 mg/kg. For the same compound, the median effective dose (ED50) in data set [4] stood at 30 mg/kg.
Compound `Cc1ccc(OCCN2CCN(CCCC(=O)c3ccc(F)cc3)CC2)c([N+](=O)[O-])c1.Cl.Cl` [Substance 4, 1-[3-(4-Fluorobenzoyl)propyl]-4-[2-(4-methyl-2-nitrophenoxy)ethyl]piperazine dihydrochloride] registered a 50% lethal dose (LD50) in data set [2] of 1720 mg/kg. Moreover, the ED (2-fold sleeping time) in data set [3] turned out to be 20 mg/kg. In addition, the 50% effective dose (ED50) in data set [4] stood at 46 mg/kg.
For the compound `COc1cc(C)ccc1OCCN1CCN(CCCC(=O)c2ccc(F)cc2)CC1.Cl.Cl` [Substance 5, 1-[3-(4-Fluorobenzoyl)propyl]-4-[2-(4-methyl-2-methoxyphenoxy)ethyl]piperazine dihydrochloride], in data set [1], the “Squirrel cage motility test versus 21.5 mg/kg chlordiazepoxide (Test 4)” value is given as 3.2 mg/kg. The compound also returned an LD50 in data set [2] of 458 mg/kg. Besides, the ED (2-fold sleeping time) in data set [3] was found to be 46 mg/kg. In addition, the ED50 in data set [4] was 7 mg/kg.
`Cl.Cl.N#Cc1ccc(OCCN2CCN(CCCC(=O)c3ccc(F)cc3)CC2)cc1` [Substance 1, 1-[3-(4-Fluorobenzoyl)propyl]-4-[2-(4-cyanophenoxy)ethyl]-piperazine dihydrochloride]: in data set [1], the “Squirrel cage motility test versus 21.5 mg/kg chlordiazepoxide (Test 4)” value was determined as 0.7 mg/kg. In data set [2], this compound showed an LD50 of 215 mg/kg. Besides, the ED (2-fold sleeping time) in data set [3] came to 10 mg/kg. Also, the ED50 in data set [4] is 21.5 mg/kg.
On to `CS(=O)(=O)c1ccc(OCCN2CCN(CCCC(=O)c3ccc(F)cc3)CC2)cc1.Cl.Cl` [Substance 7, 1-[3-(4-Fluorobenzoyl)propyl]-4-[2-(4-methylsulfonylphenoxy)ethyl]piperazine dihydrochloride], for which the “Squirrel cage motility test versus 21.5 mg/kg chlordiazepoxide (Test 4)” value in data set [1] is 6.8 mg/kg. In addition, in data set [2], the LD50 worked out at 825 mg/kg. The ED (2-fold sleeping time) in data set [3] was found to be 46 mg/kg. Also, the 50% effective dose (ED50) in data set [4] is 30 mg/kg.
